Assays:
COX-2 gene expression [1] = test: COX-2 gene expression in MCAo mice brains; conditions: 5 mg/kg i.v., 18 hrs following MCAo
recombinant COX-2 = recombinant COX-2 (Homo sapiens, UniProt P35354); test: In vitro enzymatic activity of recombinant COX-2 (PGF2α EIA); type: biochemical; conditions: purified COX-2, test compounds up to 10 μM, 5 min preincubation, substrate AA
Panc-1 = Panc-1 pancreatic tumor cell proliferation (crystal violet); type: cell-based; conditions: Homo sapiens, 24 hours, read-out: Inhibition of Panc-1 cells proliferation
Description: Cells from several tumor-derived cell lines are tested for their proliferation capacity in presence of our test compounds. Pancreatic tumor cell lines were obtained from ATCC. Panc-1 (ATCC # CRL-1469) were cultured in DMEM supplemented with 4 mM Glutamine, 4.5 g/L glucose, 1.5 g/L bicarbonate, antibiotics (penicillin, nystatin and streptomycin) and 10% heat inactivated fetal calf serum. Aspc-1 (ATCC # CRL-1682) were cultured in RPMI supplemented with 2 mM Glutamine, 10 mM HEPES, 1 mM sodium pyruvate, 4.5 g/L glucose, 1.5 g/L bicarbonate, antibiotics (penicillin, nystatin and streptomycin) and 20% heat inactivated fetal calf serum. Cells were seeded in a 24 well plate (10^5 cells/ml/well) and grown overnight. The cells are incubated with the test compounds (1-100 μM) or vehicle (0.1% DMSO final concentration). Cell viability was determined 24 hours later using standard crystal violet staining. The culture medium was removed from the wells and the cells were fixed by adding 1 ml/well of 2% formaldehyde in PBS for 10 minutes. […] The plates were agitated for 15 minutes at room temperature and 100 μl were transferred in duplicate to a 96 well plate for reading. Optical density (OD) of the cells was measured at 620 nm in an ELISA reader and results are expressed as % viable cells. Absorbance of untreated cells is recorded as 100%.

IL-2 gene expression = IL-2 gene expression in MCAo mice brains; conditions: 5 mg/kg i.v., 18 hrs following MCAo
[2] = test system: LoVo colorectal cancer cells; test: Tumor growth of in vivo implanted LoVo colorectal cancer cells; design: species or system mice; conditions: end of 8 weeks treatment
Description: Once we have shown that dexanabinol and its analogs were inhibitors of tumor cell proliferation in vitro, we wished to test if our compounds were as efficient in vivo. For this purpose the tumor cells LoVo (originating from a colorectal tumor; ATCC # CCL-229) were grown in DMEM containing 4.5 g/L glucose, 2 mM Glutamine, 1% Pen/Strep and 10% heat inactivated fetal calf serum. The cells were harvested using Trypsin-EDTA, the detached cells were rinsed in PBS, and counted. Predetermined amounts (1×10^6 cells in constant volume of […]) were injected s.c. above the right femoral joint in nude CD-1 male mice (average weight 20-25 gr, Harlan, Israel). Each treatment group was composed of at least 7 animals. Each animal was clinically monitored daily. The growth of the tumor was also monitored during the daily visits but actual measurements were recorded once a week. When tumors reach the appropriate size, animals are treated with either vehicle, 5 ml/kg/day, or with our test compounds, in the range of 2.5 to 10 mg/kg/day.
Thirty-six out of the 40 implanted mice developed a visible tumor within 5 to 6 weeks from tumor implantation. All animals were treated first on the 36th-42nd day of tumor implantation and the treatment lasted 8 weeks. One animal died in each treatment group between the 5th and the 7th week of treatment. The results are expressed as percent of tumor growth at the various days of the treatment as compared to baseline day 1. The results are depicted in FIG. 7 where we can observe that the efficacy of dexanabinol is inversely proportional to its dose in the range tested. 2.5 mg/kg (▪) seems more efficient than 5 mg/kg (▴), itself better than 10 mg/kg (x), which has very little effect, if at all, as compared to vehicle (--♦--). By the end of the treatment, 2.5 mg/kg dexanabinol reduced the tumor growth by 89%, 5 mg/kg by 61% and 10 mg/kg by 21%.

MCP-1 gene expression = MCP-1 gene expression in MCAo mice brains; conditions: 5 mg/kg i.v., 18 hours of MCAo
COX-2 gene expression [3] = test: COX-2 gene expression in activated Jurkat T cells; type: cell-based, human; conditions: 10 μM, normalized to GAPDH
Description: II reverse transcriptase (Life Technologies).
The human acute lymphoma T cell line Jurkat (ATCC # TIB 152) was used to test the possible immunosuppressive effect of dexanabinol and its analogs on T cell activation. The Jurkat cells were grown in RPMI 1640 medium with 2 mM L-glutamine adjusted to contain 1.5 g/L sodium bicarbonate, 4.5 g/L glucose, 10 mM HEPES, 1.0 mM sodium pyruvate, and 10% heat inactivated fetal bovine serum. Cells were grown in tissue culture flasks and seeded at appropriate density into 24 wells tissue culture plates. 2×10^6 cells in one milliliter were stimulated using 10 ng/ml of PMA (Sigma) and 1 μM A23187 calcium ionophore (Sigma). […] The controls and test compounds were added at indicated concentrations one hour before stimulation.
In addition, we used this experimental system to test the impact of dexanabinol and its analogs on COX-2 gene expression. Following activation of Jurkat cells with PMA and calcium ionophore we obtained elevated COX-2 gene expression levels. The impact of the test compounds on COX-2 was assessed as previously described for IL-2. FIG. 2 depicts the results of this experiment as fold activation of COX-2 over non-activated T cells. The results are plotted after normalization to GAPDH expression. […]

PGE2 secretion = test: Inhibition of PGE2 secretion in LPS activated mouse macrophages (RAW 264.7); type: cell-based; conditions: RAW264.7, LPS activated RAW 264.7 cells
Description: The assay reproduces in vitro the true enzymatic activity, the test compounds, up to 10 μM, were preincubated for 5 minutes with purified COX-2, then the natural substrate AA was added and the reaction was allowed to proceed for 2 minutes. HCl was used to stop the enzyme catalysis and saturated stannous chloride was added to stabilize the PGH2 product into PGF2α.
RAW 264.7 macrophages, a mouse cell line (ATCC # TIB 71), were grown in Dulbecco's modified Eagle's medium (DMEM) with 4 mM L-glutamine adjusted to contain 1.5 g/L sodium bicarbonate, 4.5 g/L glucose, and 10% heat inactivated fetal bovine serum. Cells were grown in tissue culture flasks and seeded at appropriate density into 24 wells tissue culture plates. 0.5×10^6 Raw cells in one milliliter were stimulated with 2 μg/ml Lipopolysaccharide E. coli 055:B5 (DIFCO Laboratories). The mouse macrophages were pre-treated for one hour with controls or 10 μM of dexanabinol and its analogs, unless indicated otherwise, and later on activated with LPS.

recombinant COX-2, sequence (P35354 18-604): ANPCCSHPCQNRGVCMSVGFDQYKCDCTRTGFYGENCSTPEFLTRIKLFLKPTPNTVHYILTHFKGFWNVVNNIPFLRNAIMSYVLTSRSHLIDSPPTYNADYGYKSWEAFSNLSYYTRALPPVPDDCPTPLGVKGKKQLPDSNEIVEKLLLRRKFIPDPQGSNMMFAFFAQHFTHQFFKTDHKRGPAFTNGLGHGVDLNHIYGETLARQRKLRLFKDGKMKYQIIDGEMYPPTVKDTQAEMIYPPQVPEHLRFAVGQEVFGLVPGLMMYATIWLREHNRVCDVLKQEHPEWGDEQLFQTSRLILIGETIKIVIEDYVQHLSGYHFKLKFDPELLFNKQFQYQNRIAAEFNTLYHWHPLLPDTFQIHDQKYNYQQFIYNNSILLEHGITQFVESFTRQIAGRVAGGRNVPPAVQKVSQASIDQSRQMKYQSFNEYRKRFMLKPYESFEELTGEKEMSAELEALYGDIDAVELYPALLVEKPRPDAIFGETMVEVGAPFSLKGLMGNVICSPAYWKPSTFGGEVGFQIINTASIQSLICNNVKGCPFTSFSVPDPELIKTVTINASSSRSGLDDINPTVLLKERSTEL

`CCCCCCC(C)(C)c1cc(O)c2c(c1)OC(C)(C)[C@H]1CC=C(CO)C[C@H]21` [dexanabinol, 1,1-dimethylheptyl-(3S,4S)-7-hydroxy-Δ^6-tetrahydrocannabinol] was tested, and the “Reduction of COX-2 gene activation vs vehicle” value (COX-2 gene expression [1]) was 38%, the “Inhibition of COX-2 enzymatic activity” value (recombinant COX-2) was “no inhibitory effect” and the inhibition at 15 µM (Panc-1) was 26%. For the same compound, the “Reduction of IL-2 gene activation vs vehicle” value (IL-2 gene expression) was 177%, the “Reduction of tumor growth” value ([2]; 2.5 mg/kg/day) was 89% and the “Reduction of tumor growth” value ([2]; 5 mg/kg/day) was 61%. For the same compound, the “Reduction of tumor growth” value ([2]; 10 mg/kg/day) was 21%, the “Reduction of MCP-1 gene expression increase vs vehicle” value (MCP-1 gene expression) was 41% and the “Inhibition of COX-2 gene expression” value (COX-2 gene expression [3]) was 88%. The IC50 (PGE2 secretion) was 10 µM.

From US20050137251A1, “Dexanabinol and dexanabinol analogs regulate inflammation related genes” (priority 2002, published 2005)
